The numbers were not newly measured in patent US20070184110A1, “Dipyridamole extended-release formulations and process for preparing same” (priority 2006, published 2007), which cites them from elsewhere.

SMILES strings stand for the structures.

For this data set the following is noted: above a pH of 4.

Regarding `OCCN(CCO)c1nc(N2CCCCC2)c2nc(N(CCO)CCO)nc(N3CCCCC3)c2n1` [Dipyridamole, 2,6-bis-(diethanolamino)-4,8-dipiperidino-(5,4-d)-pyrimidine], the solubility in water result is on record as “practically insoluble”.
